The OligoGym collection
Values joined by “and” are separate entries in the source; they are usually repeats but may differ in a detail not shown here. Identical values can stand only once. After the bases stand the sugars from the 5' end (letter, count) and the backbone: PS all phosphorothioate, else s phosphorothioate and o phosphodiester by linkage. Methylation of C is not given here. e = 2'-O-(2-methoxyethyl) (MOE); k = constrained ethyl (cEt); d = 2'-deoxy (DNA)

Molecular target: IRF4
Details: ASO

Sequence	target mRNA inhibition (SK-MEL-28, 4 µM)	target mRNA inhibition (MM.1R, 1 µM)	also measured
TCTTACAGCAATCTTA (sugars k3 d10 k3, PS)	32%		
TCTTCTGGATTGCTGA (sugars k3 d10 k3, PS)		20%	
TCTTGTGGACACTTTT (sugars k3 d10 k3, PS)	65%		
TGAAACTGAGAGTGCG (sugars k3 d10 k3, PS)	19%		
TGAAATGGAGCATCCG (sugars k3 d10 k3, PS)	9%		
TGAGATAAGAAGCACT (sugars k3 d10 k3, PS)	20%		
TGAGATAGGAAGCACT (sugars k3 d10 k3, PS)	38%		
TGAGCACTCTTACTCC (sugars k3 d10 k3, PS)		-6%	
TGATAGCTGAGCTGAT (sugars k2 d9 e3 k2, PS)		-2%	
TGATAGCTGAGCTGAT (sugars kdddddddddkekeke, PS)		17%	
TGATAGCTGAGCTGAT (sugars kkdddddddddekeke, PS)		15%	
TGATAGCTGAGCTGAT (sugars kkdddddddddkdkdk, PS)		-22%	
TGATAGGTATACTTAA (sugars k3 d10 k3, PS)	28%		
TGATATTAGAGACTGT (sugars k3 d10 k3, PS)	60%		
TGCAAAATAGTCACTC (sugars k3 d10 k3, PS)	48%		
TGCAAACGACAAGTGG (sugars k3 d10 k3, PS)	21%		
TGCAAGATGACTCCAT (sugars k3 d10 k3, PS)	57%		
TGCAGCACCGTGGTGC (sugars k3 d10 k3, PS)		-1%	
TGCATGAGGGTGACAC (sugars k3 d10 k3, PS)	45%		
TGCCAGAGGGCAAGAT (sugars k3 d10 k3, PS)	2%		
TGCCAGTGGTGGCCGC (sugars k3 d10 k3, PS)	30%		
TGCCATGGACAAGTTT (sugars k3 d10 k3, PS)		-18%	
TGCCGAGATATAAATA (sugars k3 d10 k3, PS)	23%		
TGCCGTGTCAGGGTCG (sugars k3 d10 k3, PS)	11%		
TGCCTGAACTGTGTAA (sugars k3 d10 k3, PS)	35%		
TGCGAGTACCCAAGAC (sugars k3 d10 k3, PS)	59%		

Sequence	target mRNA inhibition (SK-MEL-28, 4 µM)	target mRNA inhibition (MM.1R, 1 µM)	also measured
TGCGGAGGTTCCTTGA (sugars k3 d10 k3, PS)		12%	
TGCGGCTCCGGCGACG (sugars k3 d10 k3, PS)		-20%	
TGCTATTAAACTGATT (sugars k3 d10 k3, PS)		-3%	
TGCTGATCCTGGGAGT (sugars k3 d10 k3, PS)	79%		
TGCTGCAAATCCCTCT (sugars k3 d10 k3, PS)		21%	
TGCTTATCAATGCCAA (sugars k3 d10 k3, PS)	70%	35% and 31%	target mRNA inhibition (MM.1R, 0.074 µM): 12%; target mRNA inhibition (MM.1R, 0.222 µM): 12%; target mRNA inhibition (MM.1R, 0.666 µM): 16%; target mRNA inhibition (MM.1R, 2 µM): 50%; target mRNA inhibition (MM.1R, 4 µM): 69% and 66%
TGCTTCAACACACTGT (sugars k3 d10 k3, PS)	3%		
TGCTTGAGGTTTTCCT (sugars e1 k2 d9 k2 e2, PS)		35%	
TGCTTGAGGTTTTCCT (sugars k3 d9 k3 e1, PS)		46%	
TGCTTGAGGTTTTCCT (sugars kdddddddddkekeke, PS)		9%	
TGCTTGAGGTTTTCCT (sugars kkkddddddddkekek, PS)		27%	
TGCTTTGGGCACCAAA (sugars k3 d10 k3, PS)	52%		
TGGAAACTCCTCTCCA (sugars k3 d10 k3, PS)	16%		
TGGACATCTGCGGGTC (sugars k3 d10 k3, PS)	44%		
TGGACTCGGAGCTGAG (sugars k3 d10 k3, PS)	24%		
TGGAGAAGTCCCGTGG (sugars k3 d10 k3, PS)		-9%	
TGGCACCAAAAGTACC (sugars k3 d10 k3, PS)	34%		
TGGCACCAAGGTCCAG (sugars k3 d10 k3, PS)	1%		
TGGCCTTCCTGGCGGA (sugars k3 d10 k3, PS)	9%		
TGGCGGAGCATCAACA (sugars k3 d10 k3, PS)	37%		
TGGCGGATAGATCTGT (sugars k3 d10 k3, PS)	34%		
TGGCTAGCAGAGGTTC (sugars k3 d10 k3, PS)	56%		target mRNA inhibition (SK-MEL-28, 0.185 µM): 1%; target mRNA inhibition (SK-MEL-28, 5 µM): 62%; target mRNA inhibition (SK-MEL-28, 15 µM): 85%
TGGGAGTACCCGCAGA (sugars k3 d10 k3, PS)	26%		
TGGGATGCCACCATCC (sugars k3 d10 k3, PS)		-2%	
TGGGATTATATACTGG (sugars kkddddddddddkeke, PS)		68% and 60%	target mRNA inhibition (MM.1R, 0.0625 µM): 21%; target mRNA inhibition (MM.1R, 0.25 µM): 43%; target mRNA inhibition (MM.1R, 4 µM): 83%
TGGGTATTTATAACCG (sugars k3 d10 k3, PS)		4%	

Sequence	target mRNA inhibition (SK-MEL-28, 4 µM)	target mRNA inhibition (MM.1R, 1 µM)	also measured
TGGTACGGGATTTCCG (sugars k3 d10 k3, PS)	37%		
TGGTTGGCTGGTCTTT (sugars kkdddddddddkdkdk, PS)		51%	
TGTAACGCACCCGCAG (sugars k3 d10 k3, PS)		-4%	
TGTAGTATGAGAAACG (sugars kddddddddddkekek, PS)		7%	
TGTAGTATGAGAAACG (sugars kdddddddddkekeke, PS)		14%	
TGTAGTATGAGAAACG (sugars kkdddddddddkekek, PS)		12%	
TGTAGTATGAGAAACG (sugars kkkdddddddddkeke, PS)		29%	
TGTAGTATGAGAAACG (sugars kkkddddddddkekek, PS)		23%	
TGTATCATGCATACCA (sugars k3 d10 k3, PS)		3%	
TGTCAAAGAGCTTGCA (sugars k3 d10 k3, PS)	11%		
TGTCACCTGGCAACCA (sugars k3 d10 k3, PS)	9%		
TGTCACCTGGCAACCT (sugars k3 d10 k3, PS)		-4%	
TGTGAACATCTCAGAT (sugars k3 d10 k3, PS)	12%		
TGTGATAGCTGAGCTG (sugars kkddddddddddkeke, PS)		16%	
TGTGATAGCTGAGCTG (sugars kkdddddddddkekek, PS)		17%	
TGTGCAAAACCAGTAC (sugars k3 d10 k3, PS)		-20%	
TGTGTATTACTCTTAG (sugars kddddddddddkekek, PS)		58% and 56%	
TGTGTATTACTCTTAG (sugars kdddddddddkekeke, PS)		32% and 52%	
TGTGTATTACTCTTAG (sugars kkdddddddddkekek, PS)			target mRNA inhibition (MM.1R, 0.0625 µM): 19%; target mRNA inhibition (MM.1R, 0.25 µM): 32%; target mRNA inhibition (MM.1R, 4 µM): 85%
TGTTACCGATGCTTCA (sugars k3 d10 k3, PS)	49%		
TGTTACCGATGCTTCA (sugars kkddddddddddkeke, PS)		25% and 42%	
TGTTACCGATGCTTCA (sugars kkdddddddddkekek, PS)		28% and 21%	
TTAAAGAGTGGTACAC (sugars k3 d10 k3, PS)	6%		
TTAAGAGGCGACTGCT (sugars k3 d10 k3, PS)	12%		
TTACAGCATCTAAGGC (sugars k3 d10 k3, PS)	21%		
TTACTTCCCTGAGAAA (sugars k4 d8 k4, PS)	14%		

Sequence	target mRNA inhibition (SK-MEL-28, 4 µM)	target mRNA inhibition (MM.1R, 1 µM)	also measured
TTAGACATTACTAGAT (sugars k3 d10 k3, PS)	45%		
TTATATACTGGTTGGT (sugars kkddddddddddkeke, PS)		47%	
TTATGCATGTTCCTCA (sugars k3 d10 k3, PS)	57%		
TTATGTTAGCCAATTC (sugars kdddddddddkekeke, PS)		9% and 2%	
TTATTAGACTGACAGC (sugars k3 d10 k3, PS)	37%		
TTATTTGTGGCTCAAC (sugars k3 d10 k3, PS)	18%		
TTCAAAGCGCACCGCA (sugars k3 d10 k3, PS)	49%		
TTCAGAGTCCTGAGAC (sugars k3 d10 k3, PS)	46%		
TTCATAGCTAGTTCAT (sugars k3 d10 k3, PS)	44%		
TTCATGTAAAGTCTGC (sugars k2 d9 e3 k2, PS)		27% and 35%	
TTCATGTAAAGTCTGC (sugars kdddddddddkekeke, PS)		9% and 3%	
TTCATGTAAAGTCTGC (sugars kkdddddddddekeke, PS)		32% and 39%	
TTCATGTAAAGTCTGC (sugars kkdddddddddkdkdk, PS)		14% and 35%	
TTCCAGTGGTGGGTCC (sugars k3 d10 k3, PS)	29%		
TTCTACAAGGTCTGAG (sugars k3 d10 k3, PS)	47%		
TTCTTATGCATGTTCC (sugars k3 d10 k3, PS)	65% and 80%		
TTCTTTATAGTAGGTA (sugars k3 d10 k3, PS)		15%	
TTCTTTATGCGAAGAA (sugars k3 d10 k3, PS)	9%		
TTGAAGCAACACGGGA (sugars k3 d10 k3, PS)	61%		
TTGATGTGATAGCTGA (sugars k3 d10 k3, PS)		55%	
TTGATGTGATAGCTGA (sugars kkddddddddddkeke, PS)		11%	
TTGCAGAGCAATTTAC (sugars k3 d10 k3, PS)	50%		
TTGCTTTGCAGAGCAA (sugars k3 d10 k3, PS)	28%		
TTGGAAACCAGCCCTT (sugars k3 d10 k3, PS)	39%		
